Consider 13 compounds from patent EP0732331A1, “Novel benzothiophene compounds and methods for inhibiting lipoxygenase and leukotrienes” (ELI LILLY AND COMPANY, priority 1995, dated 1996).

Where two headings read alike, the source gives them in different places.

In assay [1] the test system is production of LTC4 by the cytokine dependent mast cell line MCII. The experiment in a line: MCII Mast Cell LTC4 Assay. The settings on record: read-out: LTC4. In kind it is cell-based, mouse. An excerpt: This assay measures the production of LTC4 by the cytokine dependent mast cell line MCII, stimulated by cross linking the high affinity Fc receptor for IgE (FcεR1).
The bone marrow derived, cytokine dependent mouse mast cell line MCII (Lilly Research Laboratories) is maintained in log phase growth in complete Dulbecco's' Modified Eagles Medium (GIBCO BRL) supplemented with fetal bovine serum (Hyclone), gentamicin, penicillin and streptomycin (GIBCO BRL) and using concanavalin A (ICN ImmunoBiologicals) induced culture supernatants from the mouse helper T cell clone D10.G4 (ATCC TIB 224) as a source of mast cell growth factors. The MCII cells are passively sensitized with mouse monoclonal IgE by incubation with an appropriate dilution of IgEL b4 (ATCC TIB 141) antibody ascites at 37° C for 60 minutes and then washed with Hank's Balanced Salt Solution (GIBCO BRL) to remove unbound IgE. The sensitized cells are then preincubated with drug in complete media for 10 minutes at 37° C in 96 well polypropylene plates (Costar). Each drug concentration is tested in triplicate at half log dilutions. The drug vehicle is dimethyl sulfoxide which is present at a final concentration of 0.32% in all wells.
There are 40,000 MCII cells per well in a final volume of 200 µl complete medium. The stimulated cells are incubated at 37° C for 10 minutes and then LTC4 production is stopped by addition of 25 µl of 180 mM EDTA to chelate extracellular Ca^++.
The amount of LTC4 produced is determined in a competitive enzyme immunoassay (EIA) using commercial reagents purchased from Cayman Chemical Co. In the EIA, free LTC4 in the sample competes with enzyme conjugated LTC4 for binding to immobilized anti-LTC4 antibody. The enzyme conjugated to LTC4 is acetylcholinesterase and Elman's reagent is the substrate for the enzyme. The concentration of LTC4 in the unknown sample is determined using a 4-parameter quadratic analysis of a standard curve generated by measuring the optical density resulting from the addition of known amounts of LTC4 to the EIA.
The positive control on each plate is stimulated MCII cells with dimethyl sulfoxide vehicle alone and the negative control is the same reaction mixture without cells. The background negative control value is subtracted from experimental and positive control values and the data are reported as percent of positive control.

In assay [2] the test system is MCII cells. In words: MCII Mast Cell Toxicity Assay (XTT). The settings on record: Mus musculus, read-out: Toxicity. In kind it is cell-based. An excerpt:
This toxicity assay is run in parallel with the MCII mast cell LTC4 assay and serves as an indicator of compound effects on the viability and metabolic activity of the MCII cells. This "toxicity" assay is based on the ability of dehydrogenase enzymes present in viable metabolically active cells to bioreduce the tetrazolium salt XTT yielding a colored, water soluble formazan product. (see, Roehm et al.) "An improved colorimetric assay for cell proliferation and viability utilzing the tetrazolium salt XTT. J. Immunol. Methods 142:257-65 (1991).
A duplicate polystyrene 96-well tissue culture plate (Costar) is set up with sensitized MCII cells, EM95 ascites, media and dilutions of the test compound as described above. The complete media is supplemented with concanavalin A induced culture supernatants from the mouse helper T cell clone D10.G4, as a source of mast cell growth factors.
Wells of the toxicity assay plate are pulsed with 25 µl XTT (Sigma) plus phenazine methosulfate (Aldrich) giving a final concentration of 0.2 mg/ml XTT and 25 µM phenazine methosulfate. The plates are incubated at 37° C in 10% CO2 for 4-12 hours and then production of the XTT formazan product determined by measuring the optical density of the wells at a wavelength of 450 nm. The positive control on each plate is stimulated MCII cells with dimethyl sulfoxide vehicle alone and the negative control is the same reaction mixture without cells. The background negative control value is subtracted from experimental and positive control values and the data are reported as percent of positive control.
On the technique in general: Tetrazolium assays rely on reduction of a dye to a coloured formazan, in cell work by metabolically active cells.

Assay [3] relates to production of leukotriene B4 (LTB4). In words: Inhibition of Eicosanoid Production by Plasma-depleted Blood: LTB4. The format is cell-based. The settings on record: Homo sapiens, read-out: LTB4. Here is the method: (§1) Compounds are evaluated for their ability to inhibit production of leukotriene B4 (LTB4) and thromboxane B2 (TxB2) upon stimulation of human plasma-depleted blood with formyl-methionyl-leucyl-phenylalanine (FMLP) and thrombin. LTB4 is produced by neutrophils and TxB2 by platelets stimulated at their respective receptors with FMLP and thrombin. The assay is carried out in 1 ml deep well polypropylene 96-well plates (Beckman). For the test, ten ml of blood is collected in EDTA at a final concentration of 1.5 mg/ml. Then, 40 ml glucose phosphate buffer containing 0.1% gelatin is added and the suspension centrifuged at 900 g for 10 minutes at room temperature. The supernatant is discarded and the cells washed once with 50 ml buffer before resuspending them in 50 ml Krebs-Ringers-Henseleit Buffer containing 0.1% gelatin, 1 mM CaCl2, 1.1 mM MgCl2 (KRH buffer). Working solutions of test compounds are made by dissolving the material in DMSO at 10 mM and diluting with appropriate amounts of KRH buffer. An agonist solution is made containing 1 µM FMLP (sigma) and 10 units/ml of thrombin in KRH buffer (Enzyme Research Labs). The blood cell suspension is first warmed to 37° C for 5 minutes and then mixed with cytochalasin B (sigma) at a final concentration of 2 µg/ml. In each well, 200 µl of the compound solution is incubated with 250 µl of the blood cell, cytochalasin B suspension at 37° C for 10 min. Stimulation of eicosanoid production is begun by adding 50 µl of the agonist solution. The mixture is then incubated for 2 min. before stopping the reaction by adding 50 µl of a solution containing 275 mM EDTA, 110 µM indomethacin (sigma) and 110 µM of the 5-lipoxygenase inhibitor, N-hydroxy-N-[3-[2-(2-propynylthio)phenyl]-2-propenyl]urea. Subsequently, the plate is centrifuged and an aliquot of the supernatant fluid removed for analysis of the eicosanoid content. The amount of LTB4 and TxB2 produced is determined by the use of a competitive enzyme immunoassay using commercial reagents from Cayman Chemical.

In assay [4] the test system is production of thromboxane B2 (TxB2). In words: Inhibition of Eicosanoid Production by Plasma-depleted Blood: TxB2. In kind it is cell-based. The settings on record: Homo sapiens, read-out: TxB2. Here is the method: as §1
Assay [5] deals with T1, cPLA2 (Homo sapiens, UniProt P47712).
T1 sequence (P47712 1-749): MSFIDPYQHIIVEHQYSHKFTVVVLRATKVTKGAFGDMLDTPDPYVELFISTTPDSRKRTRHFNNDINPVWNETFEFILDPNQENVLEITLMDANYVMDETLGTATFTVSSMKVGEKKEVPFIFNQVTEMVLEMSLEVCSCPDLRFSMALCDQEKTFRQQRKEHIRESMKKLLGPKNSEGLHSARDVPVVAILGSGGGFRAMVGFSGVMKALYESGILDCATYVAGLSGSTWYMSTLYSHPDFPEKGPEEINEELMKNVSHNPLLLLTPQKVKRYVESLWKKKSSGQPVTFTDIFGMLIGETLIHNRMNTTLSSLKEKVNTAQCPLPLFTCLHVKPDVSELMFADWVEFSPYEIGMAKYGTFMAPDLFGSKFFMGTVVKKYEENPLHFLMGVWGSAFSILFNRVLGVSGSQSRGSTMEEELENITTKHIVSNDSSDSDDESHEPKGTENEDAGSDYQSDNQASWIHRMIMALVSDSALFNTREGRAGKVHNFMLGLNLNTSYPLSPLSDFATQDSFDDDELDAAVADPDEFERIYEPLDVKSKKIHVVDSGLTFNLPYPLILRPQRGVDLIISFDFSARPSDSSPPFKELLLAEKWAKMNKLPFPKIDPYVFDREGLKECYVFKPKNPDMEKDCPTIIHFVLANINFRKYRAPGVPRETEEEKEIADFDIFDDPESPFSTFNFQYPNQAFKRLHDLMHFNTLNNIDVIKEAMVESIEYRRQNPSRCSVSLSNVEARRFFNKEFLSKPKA
The experiment in a line: Chromogenic cPLA2 enzyme assay. In kind it is biochemical. As to conditions: C-PLA2 Enzyme.

Assay [6] concerns the target T2, cytosolic 5-lipoxygenase (Homo sapiens, UniProt P09917).
T2 construct: Cells are disrupted with sonication and the cytosolic fraction obtained by centrifugation at 20,000 x g; from tissue; host or cells: human peripheral blood neutrophils, 20,000 x g cytosolic supernatant
T2 sequence (P09917 1-674): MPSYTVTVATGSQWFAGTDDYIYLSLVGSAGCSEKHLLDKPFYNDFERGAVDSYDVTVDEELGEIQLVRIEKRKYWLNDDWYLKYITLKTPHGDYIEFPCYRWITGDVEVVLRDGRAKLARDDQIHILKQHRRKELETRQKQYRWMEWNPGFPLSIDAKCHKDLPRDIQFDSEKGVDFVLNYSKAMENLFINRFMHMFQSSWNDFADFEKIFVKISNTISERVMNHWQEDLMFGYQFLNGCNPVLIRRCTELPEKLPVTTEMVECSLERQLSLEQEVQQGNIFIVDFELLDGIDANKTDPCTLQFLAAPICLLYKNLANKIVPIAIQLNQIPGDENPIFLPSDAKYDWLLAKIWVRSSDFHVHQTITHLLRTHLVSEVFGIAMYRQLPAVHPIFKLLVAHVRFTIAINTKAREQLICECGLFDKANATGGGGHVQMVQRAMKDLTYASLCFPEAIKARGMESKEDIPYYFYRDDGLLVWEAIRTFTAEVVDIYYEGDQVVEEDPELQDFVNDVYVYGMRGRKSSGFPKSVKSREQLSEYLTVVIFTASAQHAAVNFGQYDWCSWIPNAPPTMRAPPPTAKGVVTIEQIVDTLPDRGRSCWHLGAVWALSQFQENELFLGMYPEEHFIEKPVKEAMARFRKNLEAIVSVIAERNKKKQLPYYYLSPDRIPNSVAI
In words: 5-Lipoxygenase (5-LPO) Assay. The format is biochemical. As to conditions: inhibition of leukotriene B4; human neutrophil 20,000 x g supernatant; 5 minutes at 37°C.
Experimental: To determine the effect of compounds on 5-lipoxygenase activity, peripheral blood neutrophils are separated by density centrifugation as described (Marder et al., Prostaglandins Leukot. and Essent. Fatty Acids 46 , 265-270, 1992) and the cytosolic 5-lipoxygenase is prepared from isolated neutrophils according to a modification of Carter et al., (J. Pharmacol. Exp. Ther. 256 , 929-937 (1991)). Briefly, neutrophils are washed twice in buffer (in millimolar: PIPES, 10; BES, 10; and EDTA, 1; pH 6.8) and diluted to 2.5 x 10^7 cells/ml. Cells are disrupted with sonication and the cytosolic fraction obtained by centrifugation at 20,000 x g for 20 min. at 4°C. The resultant supernatant containing the cytosolic 5-lipoxygenase activity is stored frozen at -70°C prior to use. Compounds are evaluated for 5-lipoxygenase inhibitory activity. Varying concentration of compounds in 200 ml aliquots containing 50 ml of human 20,000 x g supernatant in assay buffer (in millimolar: PIPES, 10; BES, 10; EDTA, 1; NaCl, 100; ATP, 1.56; and CaCl2,, 2.5; pH 6.8) containing 3.0 mM AA are used. The reaction proceeds for 5 minutes at 37°C and is terminated upon the addition of 50 ml EDTA (250 mM). The percent inhibition of leukotriene B4 is determined for each concentration of test compound as compared to vehicle (containing no compound) control. […] Leukotriene B4 is determined by EIA.

[7] abbreviates: MCII Mast Cell, IgE-sensitized, stimulated with anti-mouse IgE EM95.
Setting [8] is: MCII Mast Cell, XTT reduction, 4-12 hours.
Setting [9] is: Plasma DPLTD Blood, stimulated with FMLP and thrombin.

Consider `COc1ccc(-c2sc3cc(OC)ccc3c2C(=O)c2cc(OC)c(O)c(OC)c2)cc1` [Example 7A], for which, in assay [1] (Mus musculus, Mast cell), the IC50 worked out at 1500 ± 300 nM.
Turning to `O=C(c1ccc(-c2ccccc2)cc1)c1c(-c2ccc(O)cc2)sc2cc(O)ccc12` [Example 1], the IC50 in assay [1] (setting [7]) is 4400 nM; in assay [2] (setting [8]), over 10000 nM; in assay [3] (setting [9]), 2200 ± 400 nM; in assay [4] (setting [9]), 2400 ± 1200 nM.
`CC(c1cc2ccccc2s1)N(O)C(N)=O` (stereo not shown) [Zileuton, (I)-N-(1-benzo[B]thien-2-ylethyl)-N-hydroxyurea, reference compound]: the IC50 in assay [1] (Mus musculus, Mast cell) was 500 ± 300 nM.
On to `O=C(c1ccc2ccccc2c1)c1c(-c2ccc(O)cc2)sc2cc(O)ccc12` [Example 3, 6-hydroxyphenyl-2-(p-hydroxyphenyl)-(benzo(B)thien-3-yl)(β-napthyl)methanone], for which the IC50 in assay [1] (setting [7]) was 3900 ± 1800 nM; in assay [2] (setting [8]) it was over 10000 nM; in assay [3] (setting [9]) it was 200 nM; in assay [4] (setting [9]), 1400 nM.
On to `O=C(c1ccccc1)c1c(-c2ccc(O)cc2)sc2cc(O)ccc12` [Compound A], for which the IC50 stood at 7100 ± 500 nM in assay [1] (Mus musculus, Mast cell); 300 nM in assay [2] (Mast cell); 500 nM in assay [3]; 4900 nM in assay [4].
`O=C(c1ccc(O)cc1)c1c(-c2ccc(O)cc2)sc2cc(O)ccc12` [Compound D]: the IC50 is 1600 nM in assay [3] and over 9800 nM in assay [4].
As to `O=C(c1cccc2ccccc12)c1c(-c2ccc(O)cc2)sc2cc(O)ccc12` [Example 2, 6-hydroxyphenyl-2-(p-hydroxyphenyl)-(benzo(B)thien-3-yl)(α-napthyl)methanone], the IC50 was over 200000 nM in assay [5]; 500 ± 200 nM in assay [1] (setting [7]); over 10000 nM in assay [2] (setting [8]); 200 ± 100 nM in assay [3] (setting [9]); 4900 ± 2400 nM in assay [4] (setting [9]).
Take `O=C(c1cccc(O)c1)c1c(-c2ccc(O)cc2)sc2cc(O)ccc12` [Example 11]: the IC50 in assay [1] (Mus musculus, Mast cell) is 2700 nM.
For `CC(C)(C)c1ccc(C(=O)c2c(-c3ccc(O)cc3)sc3cc(O)ccc23)cc1` [Example 8], in assay [1] (setting [7]), the IC50 was 3500 ± 2100 nM.
Turning to `Cc1cccc(C(=O)c2c(-c3ccc(O)cc3)sc3cc(O)ccc23)c1` [Example 10], the IC50 in assay [1] (Mus musculus, Mast cell) was found to be 1100 ± 200 nM.
On to `Oc1ccc(-c2cc3ccc(O)cc3s2)cc1` [Compound B], for which the IC50 was over 200000 nM in assay [5]; 700 nM in assay [1] (setting [7]); under 10000 nM in assay [2] (setting [8]); 800 nM in assay [3] (setting [9]); 3300 nM in assay [4] (setting [9]).
On to `COc1ccc(C(=O)c2c(-c3ccc(OC)cc3)sc3cc(OC)ccc23)cc1` [Compound C], for which the IC50 in assay [6] was over 10000 nM; in assay [1] (setting [7]), 6700 ± 3000 nM; in assay [3] (setting [9]), 1500 ± 400 nM; in assay [4] (setting [9]) it was 2000 ± 600 nM.
In the case of `Cc1ccc(C(=O)c2c(-c3ccc(O)cc3)sc3cc(O)ccc23)cc1` [Example 9], in assay [1] (Mus musculus, Mast cell), the IC50 amounted to 800 ± 500 nM.
